This note sets out measurements from patent US9133158B2, “Bicyclic dihydroisoquinoline-1-one derivatives” (Hoffmann-La Roche Inc., priority 2011, dated 2015).

One assay addresses T1, human CYP11B2 (Homo sapiens, UniProt P19099).
T1 construct: expressed in transfected cells
T1 sequence (P19099 25-503): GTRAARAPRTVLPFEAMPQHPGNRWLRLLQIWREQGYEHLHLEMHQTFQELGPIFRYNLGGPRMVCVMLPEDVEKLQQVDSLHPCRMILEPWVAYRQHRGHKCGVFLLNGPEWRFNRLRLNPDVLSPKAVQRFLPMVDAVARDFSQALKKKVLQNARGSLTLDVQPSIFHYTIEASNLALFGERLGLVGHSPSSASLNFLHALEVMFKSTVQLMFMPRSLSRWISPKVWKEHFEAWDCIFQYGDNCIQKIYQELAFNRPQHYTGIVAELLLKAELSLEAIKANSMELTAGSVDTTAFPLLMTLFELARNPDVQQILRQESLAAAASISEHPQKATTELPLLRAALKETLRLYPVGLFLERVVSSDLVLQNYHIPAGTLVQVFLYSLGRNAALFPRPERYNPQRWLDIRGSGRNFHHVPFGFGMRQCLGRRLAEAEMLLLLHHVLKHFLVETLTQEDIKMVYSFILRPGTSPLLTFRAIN
In words: G-402 cellular enzyme assay, human CYP11B2 (aldosterone release, HTRF). It is filed as cell-based. Conditions: G-402 cells, 1 μM Deoxycorticosterone. The method in brief:
(§1)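 G-402 cells stably expressing human CYP11B1 or CYP11B2 incubated 16 h in DMEM/F12 with 2.5% charcoal-treated FCS, compound, and 1 μM 11-deoxycortisol (B1) or 1 μM deoxycorticosterone (B2). Cortisol (B1) or aldosterone (B2) in supernatant measured by HTRF; EC50 from 4-parameter MMF fit.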
A general note: Time-resolved FRET reads energy transfer from a long-lived donor to a nearby acceptor.

The target of a further assay is T2, human CYP11B1 (Homo sapiens, UniProt P15538).
T2 construct: expressed in transfected cells
T2 sequence (P15538 25-503): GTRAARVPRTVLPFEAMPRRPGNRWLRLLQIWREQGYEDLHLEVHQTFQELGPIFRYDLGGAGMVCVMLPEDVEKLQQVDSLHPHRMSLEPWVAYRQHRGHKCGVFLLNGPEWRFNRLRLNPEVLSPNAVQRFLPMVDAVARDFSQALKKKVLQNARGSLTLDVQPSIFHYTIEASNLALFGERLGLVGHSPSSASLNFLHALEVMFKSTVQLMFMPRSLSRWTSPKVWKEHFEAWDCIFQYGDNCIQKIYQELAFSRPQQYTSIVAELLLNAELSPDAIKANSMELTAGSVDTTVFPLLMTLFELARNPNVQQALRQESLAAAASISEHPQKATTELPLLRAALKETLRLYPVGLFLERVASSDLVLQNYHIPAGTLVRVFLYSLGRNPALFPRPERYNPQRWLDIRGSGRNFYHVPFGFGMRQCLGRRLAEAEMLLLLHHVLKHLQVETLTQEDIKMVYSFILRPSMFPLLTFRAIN
Nature of the assay: G-402 cellular enzyme assay, human CYP11B1 (cortisol release, HTRF). Conditions: G-402 cells, 1 μM Deoxycortisol. In kind it is cell-based. The method in brief: as §1

As usually defined, the EC50 is the concentration giving half of the maximal effect. For the molecule `COC[C@@H]1CCCN1c1cncc(N2CCc3cc(Cl)ccc3C2=O)c1` [Example 49, 6-Chloro-2-[5-((S)-2-methoxymethyl-pyrrolidin-1-yl)-pyridin-3-yl]-3,4-dihydro-2H-isoquinolin-1-one], the EC50 on human CYP11B2 worked out at 0.0496 µM; at human CYP11B1, 0.188 µM.

As for `CCC(=O)N1CC(Oc2cncc(N3C(=O)c4ccc(Cl)cc4C3(C)C)c2)C1` [Example 451, 5-Chloro-3,3-dimethyl-2-[5-(1-propionyl-azetidin-3-yloxy)-pyridin-3-yl]-2,3-dihydro-isoindol-1-one], the results for the EC50 at human CYP11B2 and on human CYP11B1 were 0.0389 µM and 5.33 µM, respectively.

For the molecule `Cn1ccnc1-c1cncc(N2CCc3cc(Cl)ccc3C2=O)c1` [Example 244, 6-Chloro-2-[5-(1-methyl-1H-imidazol-2-yl)-pyridin-3-yl]-3,4-dihydro-2H-isoquinolin-1-one], the half-maximal effective concentration (EC50) at human CYP11B2 worked out at 1.86 µM; on human CYP11B1 it was 4.69 µM.

As to `O=C1c2ccc(Cl)cc2CCN1c1cncc2cc[nH]c12` [Example 72, 6-Chloro-2-(1H-pyrrolo[3,2-c]pyridin-7-yl)-3,4-dihydro-2H-isoquinolin-1-one], the EC50 came to 0.588 µM at human CYP11B2 and 16.5 µM on human CYP11B1.

Consider `O=C1c2ccc(Cl)cc2CCN1c1cnccc1C(F)(F)F` [Example 22, 6-Chloro-2-(4-trifluoromethyl-pyridin-3-yl)-3,4-dihydro-2H-isoquinolin-1-one], for which the EC50 at human CYP11B2 came out at 0.0557 µM; on human CYP11B1, 0.517 µM.

`O=C1c2ccc(Cl)cc2CCN1c1cncc(OC2CC2)c1` [Example 68, 6-Chloro-2-(5-cyclopropoxy-pyridin-3-yl)-3,4-dihydro-2H-isoquinolin-1-one]: the concentration giving a half-maximal response (EC50) at human CYP11B2 came to 0.0067 µM; at human CYP11B1, 0.157 µM.

Turning to `CC1(C)c2cc(Cl)ccc2C(=O)N1c1cncc(N2CC[C@H](O)C2)c1` [Example 454, 5-Chloro-2-[5-((S)-3-hydroxy-pyrrolidin-1-yl)-pyridin-3-yl]-3,3-dimethyl-2,3-dihydro-isoindol-1-one], the EC50 at human CYP11B2 was determined as 0.0066 µM; on human CYP11B1, 0.062 µM.

For `O=C1c2ccc(Cl)cc2CCN1c1cncc(CN2CCCS2(=O)=O)c1` [Example 82, 6-Chloro-2-[5-(1,1-dioxo-1^λ6-isothiazolidin-2-ylmethyl)-pyridin-3-yl]-3,4-dihydro-2H-isoquinolin-1-one], the results for the EC50 at human CYP11B2 and at human CYP11B1 were 0.0789 µM and 0.597 µM, respectively.

On to `CCC(=O)NC1CCCc2c1cncc2N1CCc2cc(Cl)ccc2C1=O` (stereo not shown) [Example 29, N-(6-Chloro-1-oxo-3,4,5′,6′,7′,8′-hexahydro-1H-[2,4′]biisoquinolinyl-8′-yl)-propionamide], for which the EC50 turned out to be 0.318 µM on human CYP11B2 and 12.9 µM on human CYP11B1.

As for `O=C(Cc1cncc(N2CCc3cc(Cl)ccc3C2=O)c1)NCCO` [Example 264, 2-[5-(6-Chloro-1-oxo-3,4-dihydro-4H-isoquinolin-2-yl)-pyridin-3-yl]-N-(2-hydroxy-ethyl)-acetamide], the EC50 was 0.843 µM at human CYP11B2 and 4.19 µM on human CYP11B1.

`CC(C)C(=O)Nc1cncc(N2CCc3cc(Cl)ccc3C2=O)c1` [Example 247, N-[5-(6-Chloro-1-oxo-3,4-dihydro-1H-isoquinolin-2-yl)-pyridin-3-yl]-isobutyramide]: the figures for the EC50 on human CYP11B2 and on human CYP11B1 were 4.58 µM and 7.47 µM, respectively.

Consider `CCC1c2cc(Cl)ccc2C(=O)N1c1cncc(OC(F)F)c1` (stereo not shown) [Example 282, 5-Chloro-2-(5-difluoromethoxy-pyridin-3-yl)-3-ethyl-2,3-dihydro-isoindol-1-one], for which the EC50 at human CYP11B2 is 0.0429 µM; at human CYP11B1, 0.475 µM.

As to `CC1(C)c2cc(Cl)ccc2C(=O)N1c1cncc(OC(F)F)c1` [Example 131, 5-Chloro-2-(5-difluoromethoxy-pyridin-3-yl)-3,3-dimethyl-2,3-dihydro-isoindol-1-one], the EC50 is 0.0119 µM on human CYP11B2 and 0.264 µM at human CYP11B1.

With `COc1ccc2c(n1)C(C)(C)N(c1cncc(F)c1)C2=O` [Example 294, 6-(5-Fluoro-pyridin-3-yl)-2-methoxy-7,7-dimethyl-6,7-dihydro-pyrrolo[3,4-b] pyridin-5-one], the values for the half-maximal effective concentration (EC50) at human CYP11B2 and at human CYP11B1 were 0.204 µM and 9.85 µM, respectively.
